Test [1] concerns ruminal fluid (rumen microbes). Kind of test: In vitro methane production in batch culture (Example 1). The note with it: corn silage-based diet. In kind it is cell-based, Angus crossbred steers. On the procedure:
The in vitro incubations were conducted on three separate days (replicates). A representative sample of digesta was collected from different places in the rumen of ruminally cannulated steers and strained through 4 layers of cheesecloth, placed in pre-warmed thermos containers, and transported to the laboratory within 30 minutes after the collection. In the laboratory, the ruminal fluid from the two steers was maintained under constant CO2-flux and was combined in equal proportions. This combined ruminal fluid was mixed with McDougall's buffer (McDougall, 1948) with and without 0.077 g/liter of 10 wt. % ammonium sulfate enriched with ^15N in relation 1:4, and it was used as an inoculum. […] At the end of the 24 hours incubation, the final pH was recorded, the bottles were placed on ice to prevent further microbial fermentation and two 10-ml samples were collected and acidified by adding 20 μl of a 20 vol/vol % of H2SO4-solution and were frozen at minus 20° C. until further analysis. […]
The amount of methane produced was determined by measuring total gas production and the contribution of methane to it. The production of gas was recorded using an Ankom Gas Monitoring System from Ankom Technologies. […] A gas subsample was analyzed to measure methane concentration and calculate the total methane production during the fermentation. […]

Test [2] concerns crossbred yearling steers. Description: Animal growth performance with NPN supplementation (Example 2). In kind it is in vivo. The text has this:
A total of 72 crossbred yearling steers [303 kg±29 kg initial body weight (BW) were stratified by body weight (BW) and randomly allocated to three treatments. All steers consumed a basal diet of corn silage, cotton-gin trash, and a premix of vitamins and minerals.
The steers were housed in pens (8 steers/pen, 3 pens/treatment). The steers were supplemented with three different NPN-sources on an isonitrogenous basis, considering as reference the N provided by urea when included at 1 wt. % of the diet in dry matter (DM-basis.
In Table 5, the composition of the basal diet supplemented with three different types of NPN, i.e. urea (Urea) (46% N, Yara International), a mixture of urea and biuret (UB) (41% N) and a mixture of urea, biuret and nitrate according to the present disclosure (“UBN”) (35% N, 21.3% NO3) is shown.
From day −17 to day −16 relative to the beginning of the experimental period, the steers received 20% of their total supplemental NPN.
From day −15 to day −12 relative to the beginning of the experimental period, the steers received 40% of their total supplemental NPN.
From day −11 to day −8 relative to the beginning of the experimental period, the steers received 60% of their total supplemental NPN.
From day −7 to day −3 relative to the beginning of the experimental period, the steers received 80% of their total supplemental NPN.
From day −2 to the beginning of the experimental period (day 0), the steers received 100% of their total supplemental NPN.
The gain to feed ratio (G: F) was computed as the ratio of the average daily gain (ADG) to daily dry matter intake (DMI). The feed intake was recorded daily. The individual intake was determined via the GrowSafe® intake monitoring system. In cattle management, GrowSafe Systems is a commonly used tool to closely monitor individual animal feeding data using radio frequency identification (RFID) tag technology. The animals are equipped with a unique RFID tag that is read by the feed bunks each time the animal lowers its head into the bunk to consume feed. Average daily weight gain (ADG) and feed efficiency were calculated during the performance evaluation. The ADG was determined by the difference between the final BW and the initial BW divided by the number of days of the performance evaluation (56 days). The initial BW was calculated as the average unshrunk BW of heifers on days 16 and 17. The final BW was the average unshrunk BW measured on days 72 and 73. The unshrunk BW was obtained every 14 days.
In Table 6, the effect of NPN supplementation with Urea, UB and UBN on growth performance is shown. More in particular, the initial and the final BW and the ADG, all expressed in kg, the dry matter intake (DMI) expressed in kg/day and in percentage of BW, the gain to feed ratio (G:F) expressed in kg/kg, the net energy of gain (NEg) expressed in Mcal/kg of DM and the plasma urea nitrogen (PUN) expressed in […] are shown.

`NC(N)=O` [Urea, urea]: the “Methane production, mM/g OMd” value in test [1] (per g organic matter digested) came to 6.86 mM/g OMd. Besides, in test [1] (per g organic matter incubated), the “Methane production, mM/g OMi” value stood at 1.23 mM/g OMi. Besides, the ADG is listed as 0.78 kg in test [2] (days 0-14) and 0.81 kg in test [2] (days 0-28). Moreover, the “G:F” value in test [2] (days 0-14) came out at 0.10 kg/kg; in test [2] (days 0-28), 0.11 kg/kg; in test [2] (days 0-42), 0.14 kg/kg; in test [2] (days 0-56), 0.14 kg/kg. Moreover, the NEg in test [2] (net energy of gain) is recorded as 0.55 Mcal/kg of DM.
